# Results published in patent US12202835B2, “Substituted aromatic ring-linked dioxinoquinazolines and dioxinoquinolines as kinase inhibitors” (BEIJING SCITECH-MQ PHARMACEUTICALS LIMITED, priority 2018, dated 2025).
# Legend:
# Ba/F3-AXL cells = experiment: Assay for inhibiting the proliferation of Ba/F3-AXL cells (CCK-8); assay type: cell-based; details: 72 hours of incubation, medium with 100 ng/mL hGas6, CCK-8
# Method: The values were then imported into Graphpad Prism 5 software for curve fitting, and IC50 was calculated.
# TRKA kinase = TRKA kinase (Homo sapiens (Human), UniProt P04629); experiment: Assay of small molecular compounds for inhibiting the activity of TRKA kinase (LANCE TR-FRET); assay type: biochemical
# Outline: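 TRKA (supplied as 2 nM 2× solution) was pre-reacted with compounds for 5 min at room temperature before a 4× ULight-TK peptide/ATP mix (400 nM/40 μM) started the 60-min dark reaction at 1% DMSO. After stop and 60-min detection, TR-FRET was read.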
# Chain of TRKA kinase (P04629 33-796): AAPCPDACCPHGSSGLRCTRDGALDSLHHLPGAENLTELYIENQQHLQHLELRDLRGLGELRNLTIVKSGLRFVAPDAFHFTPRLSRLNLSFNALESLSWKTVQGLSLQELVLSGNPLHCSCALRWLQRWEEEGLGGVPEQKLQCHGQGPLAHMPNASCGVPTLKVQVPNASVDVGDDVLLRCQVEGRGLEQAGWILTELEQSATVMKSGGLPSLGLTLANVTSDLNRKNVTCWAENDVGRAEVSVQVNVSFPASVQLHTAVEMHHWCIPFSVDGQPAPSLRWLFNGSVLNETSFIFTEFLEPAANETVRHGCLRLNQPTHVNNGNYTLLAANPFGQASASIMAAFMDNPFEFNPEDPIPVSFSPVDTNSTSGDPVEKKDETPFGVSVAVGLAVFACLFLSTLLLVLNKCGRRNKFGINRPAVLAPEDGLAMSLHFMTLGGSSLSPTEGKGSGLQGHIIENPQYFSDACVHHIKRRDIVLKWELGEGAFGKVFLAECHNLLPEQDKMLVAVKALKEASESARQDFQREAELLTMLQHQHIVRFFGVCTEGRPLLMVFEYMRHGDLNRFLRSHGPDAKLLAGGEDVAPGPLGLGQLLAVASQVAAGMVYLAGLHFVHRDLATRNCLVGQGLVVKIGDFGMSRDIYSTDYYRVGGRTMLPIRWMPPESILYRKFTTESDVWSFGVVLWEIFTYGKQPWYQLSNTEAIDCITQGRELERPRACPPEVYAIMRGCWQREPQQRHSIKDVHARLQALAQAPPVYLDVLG
Compound,IC50 (Ba/F3-AXL cells) [nM],IC50 (TRKA kinase) [nM]
"CC(C)n1cc(C(=O)Nc2ccc(Oc3ccnc4cc(OCCCN5CCC(C)(C)CC5)c5c(c34)OCCO5)c(F)c2)c(=O)n(-c2ccc(F)cc2)c1=O [Example 92, N-(3-fluoro-4-((5-(3-(4,4-dimethylpiperidin-1-yl)propoxy)-2,3-dihydro-[1,4]dioxino[2,3-f]quinolin-10-yl)oxy)phenyl)-3-(4-fluorophenyl)-1-isopropyl-2,4-dioxo-1,2,3,4-tetrahydropyrimidine-5-carboxamide]",< 50,< 50
"CCOc1ccn(-c2ccc(F)cc2)c(=O)c1C(=O)Nc1ccc(Oc2ccnc3cc(OCC#N)c4c(c23)OCCO4)c(F)c1 [Example 56, N-(4-((5-(cyanomethoxy)-2,3-dihydro-[1,4]dioxino[2,3-f]quinolin-10-yl)oxy)-3-fluorophenyl)-4-ethoxy-1-(4-fluorophenyl)-2-oxo-1,2-dihydropyridine-3-carboxamide]",< 50,< 50
"COc1cc2ncnc(Oc3ccc(NC(=O)c4cccn(-c5ccc(F)cc5)c4=O)cc3F)c2c2c1OCCO2 [Example 1, N-(3-fluoro-4-((5-methoxy-2,3-dihydro-[1,4]dioxino[2,3-f]quinazolin-10-yl)oxy)phenyl)-1-(4-fluorophenyl)-2-oxo-1,2-dihydropyridine-3-carboxamide]",< 50,< 50
"CCOc1ccn(-c2ccc(F)cc2)c(=O)c1C(=O)Nc1ccc(Oc2ccnc3cc(OCCCN4CCC(C)(O)CC4)c4c(c23)OCCO4)c(F)c1 [Example 69, N-(4-((5-(3-(4-hydroxy-4-methylpiperidin-1-yl)propoxy)-2,3-dihydro-[1,4]dioxino[2,3-f]quinolin-10-yl)oxy)-3-fluorophenyl)-4-ethoxy-1-(4-fluorophenyl)-2-oxo-1,2-dihydropyridine-3-carboxamide]",< 50,< 50
"CCOc1ccn(-c2ccc(F)cc2)c(=O)c1C(=O)Nc1ccc(Oc2ccnc3cc(OCCCO)c4c(c23)OCCO4)c(F)c1 [Example 54, N-(4-((5-(3-hydroxypropoxy)-2,3-dihydro-[1,4]dioxino[2,3-f]quinolin-10-yl)oxy)-3-fluorophenyl)-4-ethoxy-1-(4-fluorophenyl)-2-oxo-1,2-dihydropyridine-3-carboxamide]",< 50,< 50
"CCOc1ccn(-c2ccc(F)cc2)c(=O)c1C(=O)Nc1ccc(Oc2ccnc3cc(OCCCOC)c4c(c23)OCCO4)c(F)c1 [Example 55, N-(4-((5-(3-methoxypropoxy)-2,3-dihydro-[1,4]dioxino[2,3-f]quinolin-10-yl)oxy)-3-fluorophenyl)-4-ethoxy-1-(4-fluorophenyl)-2-oxo-1,2-dihydropyridine-3-carboxamide]",< 50,< 50
"CCOc1ccn(-c2ccc(F)cc2)c(=O)c1C(=O)Nc1ccc(Oc2ccnc3cc(OCC4CC4)c4c(c23)OCCO4)c(F)c1 [Example 59, N-(4-((5-(cyclopropylmethoxy)-2,3-dihydro-[1,4]dioxino[2,3-f]quinolin-10-yl)oxy)-3-fluorophenyl)-4-ethoxy-1-(4-fluorophenyl)-2-oxo-1,2-dihydropyridine-3-carboxamide]",< 50,50 to 500
"CCOc1ccn(-c2ccc(F)cc2)c(=O)c1C(=O)Nc1ccc(Oc2ccnc3cc(OCCCN(C)CCOC)c4c(c23)OCCO4)c(F)c1 [Example 70, N-(4-((5-(3-((2-methoxyethyl)(methyl)amino)propoxy)-2,3-dihydro-[1,4]dioxino[2,3-f]quinolin-10-yl)oxy)-3-fluorophenyl)-4-ethoxy-1-(4-fluorophenyl)-2-oxo-1,2-dihydropyridine-3-carboxamide]",< 50,< 50
"CCOc1ccn(-c2ccc(F)cc2)c(=O)c1C(=O)Nc1ccc(Oc2ccnc3cc(OCCCN4CCOCC4)c4c(c23)OCCO4)cc1Cl [Example 73, N-(2-chloro-4-((5-(3-morpholinopropoxy)-2,3-dihydro-[1,4]dioxino[2,3-f]quinolin-10-yl)oxy)phenyl)-4-ethoxy-1-(4-fluorophenyl)-2-oxo-1,2-dihydropyridine-3-carboxamide]",< 50,< 50
"CCOc1ccn(-c2ccc(F)cc2)c(=O)c1C(=O)Nc1ccc(Oc2ccnc3cc(OCCCN4CCC(C)(C)CC4)c4c(c23)OCCO4)c(F)c1 [Example 67, N-(4-((5-(3-(4,4-dimethylpiperidin-1-yl)propoxy)-2,3-dihydro-[1,4]dioxino[2,3-f]quinolin-10-yl)oxy)-3-fluorophenyl)-4-ethoxy-1-(4-fluorophenyl)-2-oxo-1,2-dihydropyridine-3-carboxamide]",< 50,< 50
"CCOc1ccn(-c2ccc(F)cc2)c(=O)c1C(=O)Nc1ccc(Oc2ccnc3cc(OCCCN(C)C4CCC4)c4c(c23)OCCO4)c(F)c1 [Example 71, N-(4-((5-(3-(cyclobutyl(methyl)amino)propoxy)-2,3-dihydro-[1,4]dioxino[2,3-f]quinolin-10-yl)oxy)-3-fluorophenyl)-4-ethoxy-1-(4-fluorophenyl)-2-oxo-1,2-dihydropyridine-3-carboxamide]",< 50,< 50
"CCOc1ccn(-c2ccc(F)cc2)c(=O)c1C(=O)Nc1ccc(Oc2ccnc3cc(OCCCN4CCN(C(C)=O)CC4)c4c(c23)OCCO4)c(F)c1 [Example 50, N-(4-((5-(3-(4-acetyl-piperazin-1-yl)propoxy)-2,3-dihydro-[1,4]dioxino[2,3-f]quinolin-10-yl)oxy)-3-fluorophenyl)-4-ethoxy-1-(4-fluorophenyl)-2-oxo-1,2-dihydropyridine-3-carboxamide]",< 50,< 50
"CCOc1ccn(-c2ccc(F)cc2)c(=O)c1C(=O)Nc1ccc(Oc2ncnc3cc(OC)c4c(c23)OCCO4)c(F)c1 [Example 3, N-(3-fluoro-4-((5-methoxy-2,3-dihydro-[1,4]dioxino[2,3-f]quinazolin-10-yl)oxy)phenyl)-1-(4-fluorophenyl)-4-ethoxy-2-oxo-1,2-dihydropyridine-3-carboxamide]",,< 50

# Results, then the compound that gave them:
IC50 (Ba/F3-AXL cells) [nM],IC50 (TRKA kinase) [nM],Compound
< 50,< 50,"CC(C)n1cc(C(=O)Nc2ccc(Oc3ccnc4cc(OCCCN5CCS(=O)(=O)CC5)c5c(c34)OCCO5)c(F)c2)c(=O)n(-c2ccc(F)cc2)c1=O [Example 76, N-(3-fluoro-4-((5-(3-(1,1-dioxidothiomorpholino)propoxy)-2,3-dihydro-[1,4]dioxino[2,3-f]quinolin-10-yl)oxy)phenyl)-3-(4-fluorophenyl)-1-isopropyl-2,4-dioxo-1,2,3,4-tetrahydropyrimidine-5-carboxamide]"
< 50,50 to 500,"CCOc1ccn(-c2ccc(F)cc2)c(=O)c1C(=O)Nc1ccc(Oc2ccnc3cc(OC(C)C)c4c(c23)OCCO4)c(F)c1 [Example 63, N-(4-((5-isopropoxy-2,3-dihydro-[1,4]dioxino[2,3-f]quinolin-10-yl)oxy)-3-fluorophenyl)-4-ethoxy-1-(4-fluorophenyl)-2-oxo-1,2-dihydropyridine-3-carboxamide]"
< 50,< 50,"CC(C)n1cc(C(=O)Nc2ccc(Oc3ccnc4cc(OCCCN5CCC(C)(N)CC5)c5c(c34)OCCO5)c(F)c2)c(=O)n(-c2ccc(F)cc2)c1=O [Example 93, N-(3-fluoro-4-((5-(3-(4-amino-4-methylpiperidin-1-yl)propoxy)-2,3-dihydro-[1,4]dioxino[2,3-f]quinolin-10-yl)oxy)phenyl)-3-(4-fluorophenyl)-1-isopropyl-2,4-dioxo-1,2,3,4-tetrahydropyrimidine-5-carboxamide]"
< 50,< 50,"CCOc1ccn(-c2ccc(F)cc2)c(=O)c1C(=O)Nc1ccc(Oc2ccnc3cc(OC4CCOC4)c4c(c23)OCCO4)c(F)c1 (centres unmarked) [Example 65, N-(4-((5-((tetrahydrofuran-3-yl)oxy)-2,3-dihydro-[1,4]dioxino[2,3-f]quinolin-10-yl)oxy)-3-fluorophenyl)-4-ethoxy-1-(4-fluorophenyl)-2-oxo-1,2-dihydropyridine-3-carboxamide]"
< 50,< 50,"CCOc1ccn(-c2ccc(F)cc2)c(=O)c1C(=O)Nc1ccc(Oc2ccnc3cc(OCCCN4CCOCC4)c4c(c23)OCCO4)c(Cl)c1 [Example 72, N-(4-((5-(3-morpholinopropoxy)-2,3-dihydro-[1,4]dioxino[2,3-f]quinolin-10-yl)oxy)-3-chlorophenyl)-4-ethoxy-1-(4-fluorophenyl)-2-oxo-1,2-dihydropyridine-3-carboxamide]"
< 50,< 50,"CCOc1ccn(-c2ccc(F)cc2)c(=O)c1C(=O)Nc1ccc(Oc2ccnc3cc(OCCO)c4c(c23)OCCO4)c(F)c1 [Example 53, N-(4-((5-(2-hydroxyethoxy)-2,3-dihydro-[1,4]dioxino[2,3-f]quinolin-10-yl)oxy)-3-fluorophenyl)-4-ethoxy-1-(4-fluorophenyl)-2-oxo-1,2-dihydropyridine-3-carboxamide]"
< 50,< 50,"Cn1cc(C(=O)Nc2ccc(Oc3ccnc4cc(OC5CCOCC5)c5c(c34)OCCO5)c(F)c2)c(=O)n(-c2ccc(F)cc2)c1=O [Example 91, N-(3-fluoro-4-((5-((tetrahydropyran-4-yl)oxy)-2,3-dihydro-[1,4]dioxino[2,3-f]quinolin-10-yl)oxy)phenyl)-3-(4-fluorophenyl)-1-methyl-2,4-dioxo-1,2,3,4-tetrahydropyrimidine-5-carboxamide]"
< 50,< 50,"CCOc1ccn(-c2ccc(F)cc2)c(=O)c1C(=O)Nc1ccc(Oc2ccnc3cc(OCCCN4CCS(=O)(=O)CC4)c4c(c23)OCCO4)c(F)c1 [Example 51, N-(4-((5-(3-(1,1-dioxidothiomorpholino)propoxy)-2,3-dihydro-[1,4]dioxino[2,3-f]quinolin-1 0-yl)oxy)-3-fluorophenyl)-4-ethoxy-1-(4-fluorophenyl)-2-oxo-1,2-dihydropyridine-3-carboxamide]"
